# Test results: US8980926B2, “2-aminoindole compounds and methods for the treatment of malaria” (Genzyme Corporation, priority 2009, dated 2015)
# Tested on: P. falciparum strain 3D7
# Experiment: In vitro potency against P. falciparum strain 3D7 (SYBR green/DAPI)
# Format: cell-based
# Settings: Plasmodium falciparum, reductions in parasitemia, read-out: IC50 values
row,IC50,SMILES
1,100 to 500 nM,NC1=Nc2ccc(Cl)cc2C1(O)c1ccccc1F (centres unmarked) [Compound 89]
2,100 to 500 nM,Cc1ccc(C2(O)C(N)=Nc3ccc(Cl)cc32)c(C)c1 (centres unmarked) [Compound 90]
3,1000 to 5000 nM,NC1=Nc2ccc(Cl)cc2C1(O)c1cccc2nsnc12 (centres unmarked) [Compound 94]
4,100 to 500 nM,NC1=Nc2ccc(Cl)cc2C1(O)c1cccc(F)c1F (centres unmarked) [Compound 95]
5,1 to 100 nM,NC1=Nc2ccc(Cl)cc2C1(O)c1ccccc1C(F)(F)F (centres unmarked) [Compound 96]
6,1 to 100 nM,CCc1ccccc1C1(O)C(N)=Nc2ccc(Cl)cc21 (centres unmarked) [Compound 97]
7,100 to 500 nM,NC1=Nc2ccc(Cl)cc2C1(O)c1ccc(Cl)cc1 (centres unmarked) [Compound 98]
8,5000 to 15000 nM,CC(=O)Nc1ccccc1C1(O)C(N)=Nc2ccc(Cl)cc21 (centres unmarked) [Compound 103]
9,100 to 500 nM,NC1=Nc2ccc(Cl)cc2C1(O)c1cncc2ccccc12 (centres unmarked) [Compound 107]
10,100 to 500 nM,NC1=Nc2ccc(Cl)cc2C1(O)c1ccnc2ccccc12 (centres unmarked) [Compound 108]
11,5000 to 15000 nM,N#Cc1ccccc1C1(O)C(N)=Nc2ccc(Cl)cc21 (centres unmarked) [Compound 109]
12,1 to 100 nM,Cn1ccc2cccc(C3(O)C(N)=Nc4ccc(Cl)cc43)c21 (centres unmarked) [Compound 111]
13,100 to 500 nM,NC1=Nc2ccc(Cl)cc2C1(O)c1ccccc1Cl (centres unmarked) [Compound 113]
14,100 to 500 nM,NC1=Nc2ccc(Cl)cc2C1(O)c1ccccc1-c1ccccc1Cl (centres unmarked) [Compound 114]
15,1 to 100 nM,NC1=Nc2ccc(Cl)cc2C1(O)c1ccccc1-c1ccccc1Br (centres unmarked) [Compound 115]
16,100 to 500 nM,NC1=Nc2ccc(Cl)cc2C1(O)c1cccc2ccncc12 (centres unmarked) [Compound 117]
17,100 to 500 nM,NC1=Nc2ccc(Cl)cc2C1(O)c1ccccc1Br (centres unmarked) [Compound 118]
18,1 to 100 nM,NC1=Nc2ccc(Cl)cc2C1(O)c1ccccc1N1CCOCC1 (centres unmarked) [Compound 119]
19,500 to 1000 nM,CS(=O)(=O)c1ccccc1C1(O)C(N)=Nc2ccc(Cl)cc21 (centres unmarked) [Compound 120]
20,1 to 100 nM,CSc1ccccc1C1(O)C(N)=Nc2ccc(Cl)cc21 (centres unmarked) [Compound 121]
21,100 to 500 nM,COc1ccccc1C1(O)C(N)=Nc2ccc(C)cc21 (centres unmarked) [Compound 122]

row,IC50,SMILES
1,1 to 100 nM,COc1ccccc1C1(O)C(N)=Nc2ccc(Br)cc21 (centres unmarked) [Compound 123]
2,100 to 500 nM,NC1=Nc2ccc(Cl)cc2C1(O)c1ccccc1-c1ccccc1 (centres unmarked) [Compound 129]
3,100 to 500 nM,NC1=Nc2ccc(Cl)cc2C1(O)c1ccccc1N1CCCCC1 (centres unmarked) [Compound 130]
4,1 to 100 nM,Cn1ncc2cccc(C3(O)C(N)=Nc4ccc(Cl)cc43)c21 (centres unmarked) [Compound 135]
5,1 to 100 nM,Cc1csc2c(C3(O)C(N)=Nc4ccc(Cl)cc43)cccc12 (centres unmarked) [Compound 136]
6,100 to 500 nM,NC1=Nc2ccc(Cl)cc2C1(O)c1nc2ccccc2s1 (centres unmarked) [Compound 137]
7,1 to 100 nM,COc1ccc(Cl)cc1C1(O)C(N)=Nc2ccc(Cl)cc21 (centres unmarked) [Compound 140]
8,1 to 100 nM,CCOc1ccccc1C1(O)C(N)=Nc2ccc(Cl)cc21 (centres unmarked) [Compound 141]
9,1 to 100 nM,NC1=Nc2ccc(Cl)cc2C1(O)c1cc2ccccc2o1 (centres unmarked) [Compound 144]
10,1 to 100 nM,COc1ccc(F)cc1C1(O)C(N)=Nc2ccc(Cl)cc21 (centres unmarked) [Compound 145]
11,500 to 1000 nM,CN1CCN(c2ccccc2C2(O)C(N)=Nc3ccc(Cl)cc32)CC1 (centres unmarked) [Compound 149]
12,1 to 100 nM,NC1=Nc2ccc(Cl)cc2C1(O)c1cccc2ccoc12 (centres unmarked) [Compound 150]
13,1 to 100 nM,NC1=Nc2ccc(Cl)cc2C1(O)c1ccccc1OC1CCC1 (centres unmarked) [Compound 151]
14,1 to 100 nM,NC1=Nc2ccc(Cl)cc2C1(O)c1ccccc1N1CCCCCC1 (centres unmarked) [Compound 162]
15,1 to 100 nM,CCSc1ccccc1C1(O)C(N)=Nc2ccc(Cl)cc21 (centres unmarked) [Compound 163]
16,1 to 100 nM,CSc1ccc(Cl)cc1C1(O)C(N)=Nc2ccc(Cl)cc21 (centres unmarked) [Compound 169]
17,1 to 100 nM,CC(C)Sc1ccccc1C1(O)C(N)=Nc2ccc(Cl)cc21 (centres unmarked) [Compound 170]
18,1 to 100 nM,CCSc1ccc(F)cc1C1(O)C(N)=Nc2ccc(Cl)cc21 (centres unmarked) [Compound 182]
19,1 to 100 nM,NC1=Nc2ccc(Cl)cc2C1(O)c1cc(SC2CCC2)ccc1F (centres unmarked) [Compound 185]
20,1 to 100 nM,NC1=Nc2ccc(Cl)cc2C1(O)c1cc(Cl)ccc1F (centres unmarked) [Compound 186]
21,1 to 100 nM,NC1=Nc2ccc(Cl)cc2C1(O)c1ccccc1SC1CCC1 (centres unmarked) [Compound 187]

# The remaining lines, values behind:
row,SMILES,IC50
1,NC1=Nc2ccc(-c3ccccc3)cc2C1(O)c1ccccc1 (centres unmarked) [Compound 87],100 to 500 nM
2,N#Cc1ccc2c(c1)C(O)(c1ccccc1)C(N)=N2 (centres unmarked) [Compound 88],1000 to 5000 nM
3,NC1=Nc2ccc(Cl)cc2C1(O)C1CC1 (centres unmarked) [Compound 91],100 to 500 nM
4,NC1=Nc2ccc(CCc3ccccc3)cc2C1(O)c1ccccc1 (centres unmarked) [Compound 92],100 to 500 nM
5,NC1=Nc2ccc(CCCC3CCCCC3)cc2C1(O)c1ccccc1 (centres unmarked) [Compound 93],100 to 500 nM
6,NC1=Nc2ccc(-c3cccnc3)cc2C1(O)c1ccccc1 (centres unmarked) [Compound 99],5000 to 15000 nM
7,NC(=O)c1ccc2c(c1)C(O)(c1ccccc1)C(N)=N2 (centres unmarked) [Compound 100],5000 to 15000 nM
8,CS(=O)(=O)c1ccc2c(c1)C(O)(c1ccccc1)C(N)=N2 (centres unmarked) [Compound 101],5000 to 15000 nM
9,NC1=Nc2ccc(Cl)cc2C1(O)c1ccc(C(=O)O)cc1 (centres unmarked) [Compound 102],5000 to 15000 nM
10,COc1ccc(C#Cc2ccc3c(c2)C(O)(c2ccccc2)C(N)=N3)cc1 (centres unmarked) [Compound 104],100 to 500 nM
11,NC1Nc2ccc(-c3nccs3)cc2C1(O)c1ccccc1 (centres unmarked) [Compound 105],100 to 500 nM
12,COc1ccc(CCc2ccc3c(c2)C(O)(c2ccccc2)C(N)=N3)cc1 (centres unmarked) [Compound 106],100 to 500 nM
13,COC(=O)c1ccc2c(c1)C(O)(c1ccccc1)C(N)=N2 (centres unmarked) [Compound 110],500 to 1000 nM
14,Cc1cc(C)cc(C2(O)C(N)=Nc3ccc(Cl)cc32)c1 (centres unmarked) [Compound 112],100 to 500 nM
15,NC1=Nc2ccc(Cl)cc2C1(O)C1CCCCC1 (centres unmarked) [Compound 116],100 to 500 nM
16,NC1=Nc2ccc(Br)cc2C1(O)Cc1ccccc1 (centres unmarked) [Compound 124],100 to 500 nM
17,C#Cc1ccc2c(c1)C(O)(c1ccc(C3(c4ccccc4)OCCO3)cc1)C(N)=N2 (centres unmarked) [Compound 125],100 to 500 nM
18,COc1ccc(CC2(O)C(N)=Nc3ccccc32)cc1 (centres unmarked) [Compound 126],100 to 500 nM
19,NC1=Nc2cccc(Cl)c2C1(O)c1cccc2ccccc12 (centres unmarked) [Compound 127],500 to 1000 nM

row,SMILES,IC50
1,Cn1cc(CC2(O)C(N)=Nc3ccccc32)c2ccccc21 (centres unmarked) [Compound 128],100 to 500 nM
2,Cc1ccc2c(c1)C(O)(Cc1ccccc1)C(N)=N2 (centres unmarked) [Compound 131],1 to 100 nM
3,COc1ccc2c(c1)C(O)(c1ccccc1OC)C(N)=N2 (centres unmarked) [Compound 132],100 to 500 nM
4,COc1ccc2c(c1)C(O)(Cc1ccccc1)C(N)=N2 (centres unmarked) [Compound 133],1 to 100 nM
5,COc1ccccc1CC1(O)C(N)=Nc2ccc(Cl)cc21 (centres unmarked) [Compound 134],1 to 100 nM
6,Cn1ncc2ccc(C3(O)C(N)=Nc4ccc(Cl)cc43)cc21 (centres unmarked) [Compound 138],100 to 500 nM
7,NC1=Nc2ccc(Cl)cc2C1(O)Cc1nc2ccccc2s1 (centres unmarked) [Compound 139],1 to 100 nM
8,Cc1ccc2c(c1)C(O)(c1cccc3ccsc13)C(N)=N2 (centres unmarked) [Compound 143],1 to 100 nM
9,CCOc1ccc(OC)cc1C1(O)C(N)=Nc2ccc(Cl)cc21 (centres unmarked) [Compound 147],1 to 100 nM
10,NC1=Nc2ccc(Cl)cc2C1(O)c1ccc2ncsc2c1 (centres unmarked) [Compound 148],100 to 500 nM
11,COc1ccc(OC(C)C)c(C2(O)C(N)=Nc3ccc(Cl)cc32)c1 (centres unmarked) [Compound 152],1 to 100 nM
12,COc1ccc2c(c1)C(O)(c1cc3ccccc3s1)C(N)=N2 (centres unmarked) [Compound 153],1 to 100 nM
13,CC(C)Oc1ccc(F)cc1C1(O)C(N)=Nc2ccc(Cl)cc21 (centres unmarked) [Compound 154],1 to 100 nM
14,CCOc1ccc(Cl)cc1C1(O)C(N)=Nc2ccc(Cl)cc21 (centres unmarked) [Compound 155],1 to 100 nM
15,CC(C)Oc1ccc(Cl)cc1C1(O)C(N)=Nc2ccc(Cl)cc21 (centres unmarked) [Compound 156],1 to 100 nM
16,NC1=Nc2ccc(Cl)cc2C1(O)c1cc(Cl)ccc1OC1CCC1 (centres unmarked) [Compound 157],1 to 100 nM
17,COc1ccc(OC2CCC2)c(C2(O)C(N)=Nc3ccc(Cl)cc32)c1 (centres unmarked) [Compound 158],1 to 100 nM
18,COc1ccc2c(c1)C(O)(c1cccc3ccsc13)C(N)=N2 (centres unmarked) [Compound 159],1 to 100 nM
19,NC1=Nc2ccc(Cl)cc2C1(O)Cc1cc2ccccc2o1 (centres unmarked) [Compound 160],1 to 100 nM

row,SMILES,IC50
1,NC1=Nc2ccc(Cl)cc2C1(O)c1cc(F)ccc1OC1CCC1 (centres unmarked) [Compound 164],1 to 100 nM
2,COc1ccc(OC2CC2)c(C2(O)C(N)=Nc3ccc(Cl)cc32)c1 (centres unmarked) [Compound 165],1 to 100 nM
3,NC1=Nc2ccc(Br)cc2C1(O)c1cccc2ccsc12 (centres unmarked) [Compound 166],1 to 100 nM
4,COc1ccc2c(c1)C(O)(c1ccccc1N1CCOCC1)C(N)=N2 (centres unmarked) [Compound 167],100 to 500 nM
5,CC(C)c1ccccc1CC1(O)C(N)=Nc2ccc(Cl)cc21 (centres unmarked) [Compound 168],1 to 100 nM
6,CCSc1ccc(Cl)cc1C1(O)C(N)=Nc2ccc(Cl)cc21 (centres unmarked) [Compound 171],1 to 100 nM
7,CC(C)n1ncc2cccc(C3(O)C(N)=Nc4ccc(Cl)cc43)c21 (centres unmarked) [Compound 172],500 to 1000 nM
8,Cc1ccc(CC2(O)C(N)=Nc3ccc(Cl)cc32)o1 (centres unmarked) [Compound 173],100 to 500 nM
9,CN(C)c1ccc(Cl)cc1C1(O)C(N)=Nc2ccc(Cl)cc21 (centres unmarked) [Compound 174],1 to 100 nM
10,NC1=Nc2ccc(Cl)cc2C1(O)c1cc(F)ccc1N1CCCCCC1 (centres unmarked) [Compound 175],1 to 100 nM
11,CC(C)Sc1ccc(Cl)cc1C1(O)C(N)=Nc2ccc(Cl)cc21 (centres unmarked) [Compound 176],1 to 100 nM
12,COc1ccc(OC(C)(C)C)c(C2(O)C(N)=Nc3ccc(Cl)cc32)c1 (centres unmarked) [Compound 177],1 to 100 nM
13,NC1=Nc2ccc(Cl)cc2C1(O)c1cc(F)ccc1N1CCOCC1 (centres unmarked) [Compound 178],1 to 100 nM
14,COc1ccc2c(c1)C(O)(c1cc(F)ccc1N1CCOCC1)C(N)=N2 (centres unmarked) [Compound 179],100 to 500 nM
15,COc1ccc2c(c1)C(O)(C1CC1)C(N)=N2 (centres unmarked) [Compound 180],100 to 500 nM
16,Cc1ccc(CC2(O)C(N)=Nc3ccc(Cl)cc32)s1 (centres unmarked) [Compound 181],1 to 100 nM
17,CC(C)Sc1ccc(F)cc1C1(O)C(N)=Nc2ccc(Cl)cc21 (centres unmarked) [Compound 183],1 to 100 nM
18,NC1=Nc2ccc(Cl)cc2C1(O)c1cc(F)ccc1SC1CCC1 (centres unmarked) [Compound 184],1 to 100 nM
